Experimental data published in ChEMBL document CHEMBL1201862, “PubChem BioAssay data set” (2004).
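Assay format: 96-well plates, 48-hour exposure. GI50 = concentration required for 50% inhibition of growth.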 Calls of active or inactive are those of the source. Cut-off read from the data, not from the text of the source: active = GI50 up to about 1.1 µM and inactive = higher.

Legend:
Assay in all cases: NCI anticancer screen, dose series, 48 h
A549 = system: A549
COLO 205 = system: COLO 205
DU-145 = system: DU-145
EKVX = system: EKVX
HOP-92 = system: HOP-92
LOX IMVI = system: LOX IMVI
M14 = system: M14
MDA-MB-231 = system: MDA-MB-231
MDA-N = system: MDA-N
MOLT-4 = system: MOLT-4
NCI-H460 = system: NCI-H460
OVCAR-8 = system: OVCAR-8
SF-295 = system: SF-295
SNB-19 = system: SNB-19
T47D = system: T47D
TK-10 = system: TK-10
Malme-3M = system: Malme-3M
NCI-H226 = system: NCI-H226
NCI-H522 = system: NCI-H522

Measured: GI50

CN1c2ccc(Cl)cc2C(=O)NC1c1ccc([N+](=O)[O-])s1 (stereo unspecified)
inactive: A549 23.5 µM | COLO 205 21.5 µM | DU-145 19.3 µM | EKVX 21.5 µM | HOP-92 14.5 µM | LOX IMVI 14.5 µM | M14 15.6 µM | MDA-MB-231 16.2 µM | MDA-N 16.2 µM | MOLT-4 10.4 µM | NCI-H460 16.1 µM | OVCAR-8 15.8 µM | SF-295 21.6 µM | SNB-19 30.1 µM | T47D 15 µM | TK-10 20.2 µM

CC1S/C(=N\N=C2/C(=O)Nc3ccc(Br)cc32)N(C2CCCCC2)C1=O (stereo unspecified)
inactive: A549 3.41 µM | COLO 205 3.85 µM | DU-145 3.73 µM | EKVX 4.16 µM | HOP-92 7.46 µM | LOX IMVI 3.62 µM | M14 4.29 µM | MDA-MB-231 2.18 µM | MDA-N 12.1 µM | MOLT-4 5.37 µM | Malme-3M 9.23 µM | NCI-H226 4.03 µM | NCI-H460 3.96 µM | SF-295 3.89 µM | SNB-19 4.06 µM | T47D 3.96 µM | TK-10 1.15 µM

O=[N+]([O-])c1ccc(CN(CCCl)OCCCl)cc1
inactive: A549 67.6 µM | COLO 205 > 100 µM | DU-145 > 100 µM | EKVX 92.7 µM | LOX IMVI 55.7 µM | M14 > 100 µM | MDA-MB-231 > 100 µM | MDA-N > 100 µM | MOLT-4 20.9 µM | Malme-3M > 100 µM | NCI-H226 > 100 µM | NCI-H460 > 100 µM | NCI-H522 31.3 µM | OVCAR-8 > 100 µM | SF-295 > 100 µM | SNB-19 > 100 µM | T47D 74.5 µM | TK-10 > 100 µM

CN1C(=O)N/C(=C\c2ccc(S(=O)(=O)N/N=C/c3ccccc3)cc2)C1=O
inactive: A549 28.5 µM | COLO 205 71.9 µM | DU-145 40 µM | EKVX 53.1 µM | HOP-92 17.1 µM | LOX IMVI 18.1 µM | M14 37 µM | MDA-MB-231 11 µM | MDA-N 32 µM | MOLT-4 14.5 µM | Malme-3M 45.5 µM | NCI-H226 74.6 µM | NCI-H460 10.5 µM | OVCAR-8 28.5 µM | SF-295 21.9 µM | SNB-19 62.2 µM | T47D 35.2 µM | TK-10 31 µM

O=C(c1ccco1)N(C(=S)OCc1ccccn1)c1ccccc1
inactive: COLO 205 > 100 µM | DU-145 > 100 µM | EKVX 13.3 µM | LOX IMVI > 100 µM | M14 > 100 µM | MDA-MB-231 > 100 µM | MDA-N > 100 µM | MOLT-4 > 100 µM | Malme-3M 17.2 µM | NCI-H226 29.6 µM | OVCAR-8 > 100 µM | SNB-19 > 100 µM | T47D 25.1 µM | TK-10 > 100 µM

COP1(=O)NCc2ncccc2O1 (stereo unspecified)
inactive: A549 > 100 µM | COLO 205 > 100 µM | DU-145 > 100 µM | EKVX > 100 µM | HOP-92 > 100 µM | LOX IMVI > 100 µM | M14 > 100 µM | MDA-MB-231 > 100 µM | MDA-N > 100 µM | MOLT-4 > 100 µM | NCI-H226 > 100 µM | NCI-H460 > 100 µM | OVCAR-8 > 100 µM | SF-295 > 100 µM | SNB-19 > 100 µM | T47D > 100 µM

CCCCCCCCCCCCCCCCCCNC(=S)N/C=C1\C(=O)Nc2ccccc2C1=O
inactive: A549 21.1 µM | COLO 205 17.4 µM | DU-145 16 µM | EKVX 13.7 µM | HOP-92 15.8 µM | LOX IMVI 16.3 µM | M14 18.3 µM | MDA-MB-231 14.9 µM | MDA-N 17.4 µM | MOLT-4 12.7 µM | NCI-H226 22.9 µM | NCI-H460 16.1 µM | OVCAR-8 15.6 µM | SF-295 21.4 µM | SNB-19 17.3 µM | T47D 24.7 µM | TK-10 23.3 µM

O=C(O)c1cc(NC2=C(Cl)C(=O)c3c(O)ccc(O)c3C2=O)ccc1O
inactive: A549 > 10 µM | COLO 205 > 10 µM | DU-145 > 10 µM | EKVX > 10 µM | HOP-92 > 10 µM | LOX IMVI > 10 µM | M14 > 10 µM | MDA-MB-231 > 10 µM | MDA-N > 10 µM | MOLT-4 > 10 µM | Malme-3M > 10 µM | NCI-H226 > 10 µM | NCI-H460 > 10 µM | OVCAR-8 > 10 µM | SF-295 > 10 µM | SNB-19 > 10 µM | T47D > 10 µM | TK-10 > 10 µM

O=C(NNc1cn[nH]c(=O)n1)c1cccc2nc3ccccc3nc12
inactive: A549 > 100 µM | COLO 205 > 100 µM | DU-145 85.3 µM | EKVX 35.8 µM | HOP-92 45.2 µM | LOX IMVI 38.8 µM | M14 > 100 µM | MDA-MB-231 26.5 µM | MDA-N > 100 µM | MOLT-4 11 µM | Malme-3M 47.5 µM | NCI-H226 82.2 µM | NCI-H460 > 100 µM | OVCAR-8 39.3 µM | SF-295 30.2 µM | SNB-19 74 µM | T47D > 100 µM | TK-10 24.3 µM

COc1ccccc1NC(=O)C(=O)Cc1cnc2ccccc2n1
inactive: A549 > 100 µM | COLO 205 > 100 µM | DU-145 > 100 µM | HOP-92 > 100 µM | LOX IMVI > 100 µM | M14 > 100 µM | MDA-MB-231 > 100 µM | MDA-N > 100 µM | MOLT-4 > 100 µM | NCI-H226 > 100 µM | NCI-H460 > 100 µM | OVCAR-8 > 100 µM | SF-295 > 100 µM | SNB-19 > 100 µM | T47D > 100 µM

CC1(C)OCC(/C=C\C(O)CC2(C)OCCO2)CO1 (stereo unspecified)
inactive: A549 > 100 µM | COLO 205 > 100 µM | DU-145 > 100 µM | EKVX > 100 µM | HOP-92 > 100 µM | LOX IMVI > 100 µM | M14 > 100 µM | MDA-MB-231 > 100 µM | MDA-N > 100 µM | MOLT-4 > 100 µM | NCI-H226 > 100 µM | NCI-H460 > 100 µM | NCI-H522 > 100 µM | OVCAR-8 > 100 µM | SF-295 > 100 µM | SNB-19 > 100 µM | T47D > 100 µM | TK-10 > 100 µM

CC(C)(C)OC(=O)[C@@H]1ON2O[C@H](OC3CCCC3(c3ccccc3)c3ccccc3)C[C@H]3OC(=O)[C@@H]1[C@H]32 (stereo partly specified)
inactive: A549 83.2 µM | COLO 205 37.3 µM | DU-145 81.8 µM | EKVX 73.5 µM | LOX IMVI 31.4 µM | M14 40.6 µM | MDA-MB-231 > 100 µM | MDA-N 61.7 µM | MOLT-4 > 10 µM | NCI-H226 36.9 µM | NCI-H460 54.3 µM | NCI-H522 32.2 µM | SF-295 > 100 µM | SNB-19 > 100 µM | T47D 54 µM | TK-10 > 100 µM
